# Assay results from patent publication US9296745B2, “Diacylglycerol acyltransferase 2 inhibitors” (Pfizer Inc., priority 2012, dated 2016).
# Molecular target: Human DGAT2 (hDGAT2) (Homo sapiens (Human), UniProt Q96PD7)
# Experiment: In vitro DGAT2 assay, IC50 determination with hDGAT2 membrane fraction
# Format: biochemical
# Conditions: geometric mean; background for complete inhibition of DGAT2 obtained with 50 μM (1R,2R)-2-({3′-Fluoro-4′-[(6-fluoro-1,3-benzothiazol-2-yl)amino]-1,1′-biphenyl-4-yl}carbonyl)cyclopentanecarboxylic acid; read-out: DGAT2 IC50
# Experimental: Recombinant baculovirus for the FLAG-tagged hDGAT2 was generated in SF9 insect cells using Bac-to-Bac baculovirus expression system (Invitrogen) according to the manufacturer's protocol. For the expression of hDGAT2, SF9 cells (20 L) grown in Sf900II media were infected with hDGAT2 baculovirus at a multiplicity of infection of 1 in a Wave Bioreactor System 20/50P wave bag (GE Healthcare). After 40 hours of infection, the cells were then harvested by centrifugation at 5,000×g. The cell pellets were washed by resuspending in phosphate buffered saline (PBS) and collected by centrifugation at 5,000×g. The cell paste was flash frozen in liquid N2 and stored at −80° C. until needed. All operations below were at 4° C. unless otherwise noted. The cells were resuspended in lysis buffer (50 mM Tris-HCl, pH 8.0, 250 mM sucrose) including 1 mM ethylenediaminetetraacetic acid (EDTA) and the complete protease inhibitor cocktail (Roche Diagnostics) at a ratio of 3 ml buffer per 1 g cell paste. The cells were lysed by dounce homogenizer. The cell debris was removed by centrifugation at 1,000×g for 20 min, and the supernatant was centrifuged at 100,000×g for 1 hour. The resulting pellet was rinsed three times by filling ultracentrifuge tubes to the top with ice cold PBS before decanting. The washed pellet was resuspended with gentle stirring for 1 hour in lysis buffer containing 8 mM 3-[(3-cholamidopropyl)dimethylammonio]-1-propanesulfonate (CHAPS) at a ratio of 1 mL buffer per 1 g of original cell paste and centrifuged again at 100,000×g for 1 hour. The resulting supernatant (hDGAT2 membrane fraction) was aliquotted, flash frozen in liquid N2, and stored at −80° C. until use.
# To 1 μL of compounds dissolved in 100% DMSO and spotted at the bottom of each well, 5 μL of 0.04% bovine serum albumin (BSA) (fatty acid free, Sigma Aldrich) was added and the mixture was incubated at room temperature for 20 minutes. To this mixture, 10 μL of hDGAT2 membrane fraction (0.01 mg/mL) diluted in 100 mM Hepes-NaOH, pH 7.4, 20 mM MgCl2 containing 200 nM methyl arachidonyl fluorophosphonate (Cayman Chemical; dried from ethyl acetate stock solution under argon gas and dissolved in DMSO as 5 mM stock) was added. […] The reaction mixtures were incubated at room temperature for 40 min and the reactions were stopped by addition of 5 μL of 1% H3PO4. After the addition of 45 μL MicroScint-E (Perkin-Elmer), plates were sealed with Top Seal-A covers (Perkin-Elmer) and phase partitioning of substrates and products was achieved using a HT-91100 microplate orbital shaker (Big Bear Automation, Santa Clara, Calif.). Plates were centrifuged at 2,000×g for 1 min in an Allegra 6R Centrifuge (Beckman Coulter) and then were sealed again with fresh covers before reading in a 1450 Microbeta Wallac Trilux Scintillation Counter (Perkin Elmer). DGAT2 activity was measured by quantifying the generated product [^14C]tridecanoylglycerol in the upper organic phase.
# Inhibitors were tested at eleven different concentrations to generate IC50 values for each compound. […] Results are reported as geometric mean IC50 values.
# Chain of Human DGAT2 (hDGAT2) (Q96PD7 whole entry): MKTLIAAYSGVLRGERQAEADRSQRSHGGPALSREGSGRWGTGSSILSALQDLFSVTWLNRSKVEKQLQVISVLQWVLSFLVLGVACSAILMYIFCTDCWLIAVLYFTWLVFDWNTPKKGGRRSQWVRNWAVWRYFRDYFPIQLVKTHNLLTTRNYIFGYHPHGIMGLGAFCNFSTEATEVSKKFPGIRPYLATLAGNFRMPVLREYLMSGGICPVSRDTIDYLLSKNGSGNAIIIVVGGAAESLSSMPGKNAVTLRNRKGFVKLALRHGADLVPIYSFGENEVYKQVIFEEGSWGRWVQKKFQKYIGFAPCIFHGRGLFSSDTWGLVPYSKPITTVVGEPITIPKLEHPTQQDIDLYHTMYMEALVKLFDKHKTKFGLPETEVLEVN
row,Compound,IC50
1,"CC(C)Cc1csc(-c2nc3ccc(N4CCC[C@@H](C(=O)N5CCCC5)C4)nc3[nH]2)n1 [Example 2, (R)-(1-(2-(4-Isobutylthiazol-2-yl)-3H-imidazo[4,5-b]pyridin-5-yl)piperidin-3-yl)(pyrrolidin-1-yl)methanone]",0.00271 µM
2,"O=C([C@@H]1CCCN(c2ccc3nc(-c4cccc(-n5cccn5)c4)[nH]c3n2)C1)N1CCCC1 [Example 3, (R)-(1-(2-(3-(1H-Pyrazol-1-yl)phenyl)-3H-imidazo[4,5-b]pyridin-5-yl)piperidin-3-yl)(pyrrolidin-1-yl)methanone]",0.00482 µM
3,"CC(C)c1csc(-c2nc3ccc(N4CCC[C@@H](C(=O)N5CCCC5)C4)nc3[nH]2)n1 [Example 4, (R)-(1-(2-(4-Isopropylthiazol-2-yl)-3H-imidazo[4,5-b]pyridin-5-yl)piperidin-3-yl)(pyrrolidin-1-yl)methanone]",0.00664 µM
4,"O=C([C@@H]1CCCN(c2ccc3nc(-c4cncc(Cl)c4)[nH]c3n2)C1)N1CCCC1 [Example 7, (R)-(1-(2-(5-Chloropyridin-3-yl)-3H-imidazo[4,5-b]pyridin-5-yl)piperidin-3-yl)(pyrrolidin-1-yl)methanone]",0.0163 µM
5,"CNS(=O)(=O)c1cccc(-c2nc3ccc(N4CCC[C@@H](C(=O)N5CCCC5)C4)nc3[nH]2)c1 [Example 8, (R)-N-Methyl-3-(5-(3-(pyrrolidine-1-carbonyl)piperidin-1-yl)-3H-imidazo[4,5-b]pyridin-2-yl)benzenesulfonamide]",0.0211 µM
6,"O=C([C@@H]1CCCN(c2ccc3nc(-c4cnn(-c5ccccc5)c4)[nH]c3n2)C1)N1CCCC1 [Example 9, (R)-(1-(2-(1-Phenyl-1H-pyrazol-4-yl)-3H-imidazo[4,5-b]pyridin-5-yl)piperidin-3-yl)(pyrrolidin-1-yl)methanone]",0.0221 µM
7,"O=C([C@@H]1CCCN(c2ccc3nc(-c4ccnc(N5CCCC5)n4)[nH]c3n2)C1)N1CCCC1 [Example 10, (R)-Pyrrolidin-1-yl(1-(2-(2-(pyrrolidin-1-yl)pyrimidin-4-yl)-3H-imidazo[4,5-b]pyridin-5-yl)piperidin-3-yl)methanone]",0.0292 µM
8,"CC(C)(O)c1cc(-c2nc3ccc(N4CCC[C@@H](C(=O)N5CCCC5)C4)nc3[nH]2)ccn1 [Example 14, (R)-(1-(2-(2-(2-Hydroxypropan-2-yl)pyridin-4-yl)-3H-imidazo[4,5-b]pyridin-5-yl)piperidin-3-yl)(pyrrolidin-1-yl)methanone]",0.0728 µM
9,"O=C([C@@H]1CCCN(c2ccc3nc(-c4ccnc(NC5CC5)n4)[nH]c3n2)C1)N1CCCC1 [Example 15, (R)-(1-(2-(2-(Cyclopropylamino)pyrimidin-4-yl)-3H-imidazo[4,5-b]pyridin-5-yl)piperidin-3-yl)(pyrrolidin-1-yl)methanone]",0.0896 µM
10,"N#Cc1cncc(-c2nc3ccc(N4CCC[C@@H](C(=O)N5CCCC5)C4)nc3[nH]2)c1 [Example 16, (R)-5-(5-(3-(Pyrrolidine-1-carbonyl)piperidin-1-yl)-3H-imidazo[4,5-b]pyridin-2-yl)nicotinonitrile]",0.102 µM
11,"Cc1nc(-c2nc3ccc(N4CCC[C@@H](C(=O)N5CCCC5)C4)nc3[nH]2)cs1 [Example 17, (R)-(1-(2-(2-Methylthiazol-4-yl)-3H-imidazo[4,5-b]pyridin-5-yl)piperidin-3-yl)(pyrrolidin-1-yl)methanone]",0.118 µM
12,"O=C([C@@H]1CCCN(c2ccc3nc([C@H]4C[C@H]4c4ccccc4)[nH]c3n2)C1)N1CCCC1 [Example 18, ((R)-1-(2-((1S,2R)-2-Phenylcyclopropyl)-3H-imidazo[4,5-b]pyridin-5-yl)piperidin-3-yl)(pyrrolidin-1-yl)methanone]",0.196 µM
13,"O=C([C@@H]1CCCN(c2ccc3nc(-c4ccc5nccn5c4)[nH]c3n2)C1)N1CCCC1 [Example 19, (R)-(1-(2-(Imidazo[1,2-a]pyridin-6-yl)-3H-imidazo[4,5-b]pyridin-5-yl)piperidin-3-yl)(pyrrolidin-1-yl)methanone]",0.208 µM
14,"Cn1cc(Cl)c(-c2nc3ccc(N4CCC[C@@H](C(=O)N5CCCC5)C4)nc3[nH]2)n1 [Example 20, (R)-(1-(2-(4-Chloro-1-methyl-1H-pyrazol-3-yl)-3H-imidazo[4,5-b]pyridin-5-yl)piperidin-3-yl)(pyrrolidin-1-yl)methanone]",0.221 µM
15,"O=C([C@@H]1CCCN(c2ccc3nc(-c4ccccc4F)[nH]c3n2)C1)N1CCCC1 [Example 21, (R)-(1-(2-(2-Fluorophenyl)-3H-imidazo[4,5-b]pyridin-5-yl)piperidin-3-yl)(pyrrolidin-1-yl)methanone]",0.346 µM
16,"CC(C)(C)c1nc2ccc(N3CCC[C@@H](C(=O)N4CCCC4)C3)nc2[nH]1 [Example 24, (R)-(1-(2-tert-Butyl-3H-imidazo[4,5-b]pyridin-5-yl)piperidin-3-yl)(pyrrolidin-1-yl)methanone]",0.731 µM

# Further compounds by falling IC50, results first:
row,IC50,Compound
1,0.432 µM,"CC(C)c1cccc(-c2nc3ccc(N4CCC[C@@H](C(=O)N5CCCC5)C4)nc3[nH]2)c1O [Example 23, (R)-(1-(2-(2-Hydroxy-3-isopropylphenyl)-3H-imidazo[4,5-b]pyridin-5-yl)piperidin-3-yl)(pyrrolidin-1-yl)methanone]"
2,0.357 µM,"CC(C)(c1ccccc1)c1nc2ccc(N3CCC[C@@H](C(=O)N4CCCC4)C3)nc2[nH]1 [Example 22, (R)-(1-(2-(2-Phenylpropan-2-yl)-3H-imidazo[4,5-b]pyridin-5-yl)piperidin-3-yl)(pyrrolidin-1-yl)methanone]"
3,0.292 µM,"c1cc(-c2nc3ccc(N4CCCC(c5nnc6n5CCC6)C4)nc3[nH]2)nc(C2CC2)c1 (racemic) [Example 169, 2-(6-Cyclopropylpyridin-2-yl)-5-(3-(6,7-dihydro-5H-pyrrolo[2,1-c][1,2,4]triazol-3-yl)piperidin-1-yl)-3H-imidazo[4,5-b]pyridine]"
4,0.0864 µM,"CC(C)COC(=O)N1CCCC(c2nc3ccc(N4CCC[C@@H](C(=O)N5CCCC5)C4)nc3[nH]2)C1 (stereo in doubt) [Example 61, (R)-iso-Butyl 3-(5-(3-(pyrrolidine-1-carbonyl)piperidin-1-yl)-3H-imidazo[4,5-b]pyridine-2-yl)piperidine-1-carboxylate]"
5,0.0636 µM,"N#Cc1ccc(-c2nc3ccc(N4CCC[C@@H](C(=O)N5CCCC5)C4)nc3[nH]2)cc1 [Example 13, (R)-4-(5-(3-(Pyrrolidine-1-carbonyl)piperidin-1-yl)-3H-imidazo[4,5-b]pyridin-2-yl)benzonitrile]"
6,0.0547 µM,"O=C([C@@H]1CCCN(c2ccc3nc(-c4cccc5ccnn45)[nH]c3n2)C1)N1CCCC1 [Example 12, (R)-(1-(2-(Pyrazolo[1,5-a]pyridin-7-yl)-3H-imidazo[4,5-b]pyridin-5-yl)piperidin-3-yl)(pyrrolidin-1-yl)methanone]"
7,0.035 µM,"Cc1csc(-c2nc3ccc(N4CCC[C@@H](C(=O)N5CCCC5)C4)nc3[nH]2)n1 [Example 11, (R)-(1-(2-(4-Methylthiazol-2-yl)-3H-imidazo[4,5-b]pyridin-5-yl)piperidin-3-yl)(pyrrolidin-1-yl)methanone]"
8,0.0115 µM,"O=C([C@@H]1CCCN(c2ccc3nc(-c4cccc(-c5cnco5)c4)[nH]c3n2)C1)N1CCCC1 [Example 6, (R)-(1-(2-(3-(Oxazol-5-yl)phenyl)-3H-imidazo[4,5-b]pyridin-5-yl)piperidin-3-yl)(pyrrolidin-1-yl)methanone]"
9,0.00824 µM,"Cc1cccc(-c2nc3ccc(N4CCC[C@@H](C(=O)N5CCCC5)C4)nc3[nH]2)c1 [Example 5, (R)-Pyrrolidin-1-yl(1-(2-m-tolyl-3H-imidazo[4,5-b]pyridin-5-yl)piperidin-3-yl)methanone]"
10,0.0017 µM,"O=C([C@@H]1CCCN(c2ccc3nc(-c4cccc(OC(F)(F)F)c4)[nH]c3n2)C1)N1CCCC1 [Example 1, (R)-Pyrrolidin-1-yl(1-(2-(3-(trifluoromethoxy)phenyl)-3H-imidazo[4,5-b]pyridin-5-yl)piperidin-3-yl)methanone]"
